The record followed here is PubChem BioAssay AID463229 (Broad Institute, 2010).

Broadly, the AC50 is the concentration giving half of the maximal activity seen.

Where “and” joins values, the source holds several entries; their conditions need not be identical. Equal entries are not always repeated. Calls of active or inactive are those of the source.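 Rule for the calls: active = compounds raising the signal whose fitted half-maximal concentration is at or below their top tested dose (cut at about 25 µM in these data); inconclusive = flat fit at 30 to 70% activity, or a poor fit; inactive = the rest.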

This test relates to INS-1E rat beta cells, no cytokines, CellTiter-Glo ATP, 48 h. Kind of test: cytokine-free beta-cell viability effect – INS-1E rat cells, ATP luminescence, cherry pick, counter-screen for beta-cell apoptosis protection project, dose response (AID 463229). (In general: The purpose of a counterscreen is to sort out artefacts and off-target activity.)
For `Cc1nc2cc(-c3ccccc3)sc2c(=O)n1N`, the concentration at half-maximal activity (AC50) is 3.6 µM.

Regarding `Cc1[nH]nc2nc(SCC(=O)NCCC3=CCCCC3)n(-c3ccc(Br)cc3)c(=N)c12`, the concentration at half-maximal activity (AC50) was 6.36 µM. In the case of `COC(=O)C1=C(C)N(Cc2ccccc2)C(=NCc2ccccc2)N[C@H]1c1cccc(C(F)(F)F)c1`, the AC50 was 14.1 µM. As for `O=C(CN(Cc1ccco1)Cc1ccco1)Nc1cc(S(=O)(=O)N2CCCCC2)ccc1Cl`, the AC50 was 7.47 µM. As for `COC(=O)C1=C(c2ccc(OCc3ccccc3)cc2)C[C@@H]2CC[C@H]1N2C(=O)NC1CCN(Cc2ccccc2)CC1`, the half-maximal activity concentration (AC50) is 7.55 µM. For the compound `O=C(CCl)N(c1ccccc1)C1CCCCC1`, the concentration at half-maximal activity (AC50) is 5.56 µM. As for `CCCCCn1c(=O)c(C(=O)NC(C)c2ccccc2)c(O)c2ccccc21` (centres undefined), the concentration at half-maximal activity (AC50) was 4.19 µM. Then `CC(=O)N1CCc2cc(S(=O)(=O)NCCC3=CCCCC3)ccc21`, with 7.63 µM; and `COc1ccc(-n2c(CNc3ccc(C)cc3)nnc2SCC(=O)Nc2nc(-c3ccccc3)cs2)cc1`, with 12.7 µM. Consider `CC(Oc1cccc(Cl)c1)C(=O)Nc1cc(S(=O)(=O)N2CCOCC2)ccc1N1CCCCC1` (centres undefined), for which the AC50 was 5.68 µM.

On to `Oc1ccccc1C(Nc1nccs1)c1ccc2cccnc2c1O` (centres undefined), for which the AC50 was 4.91 µM. Take `CC(Nc1ncnc2ccccc12)c1ccccc1` (centres undefined): the concentration at half-maximal activity (AC50) was 3.58 µM. For `CCOc1cccc(/C=N/NC(=O)c2cc(C3CC3)[nH]n2)c1O`, the AC50 is 7.83 µM. Turning to `O=c1c2ccccc2nc(COc2ccccc2)n1/N=C/c1cc([N+](=O)[O-])ccc1O`, the AC50 is 14.7 µM. Regarding `COCC1CCCCN1C(=O)c1cc(COc2ccc3ncccc3c2)on1` (centres undefined), the AC50 was 7.39 µM.

Turning to `O=C(NCC1COc2ccccc2O1)c1cccc(S(=O)(=O)NCc2ccccc2)c1` (centres undefined), the half-maximal activity concentration (AC50) was 8.8 µM. Under `CCc1cc(SC#N)cc(C)c1NC(=O)CCl` stands 4.52 µM; under `CN(C)S(=O)(=O)c1cccc(N=C2NN=C(c3ccccc3)CS2)c1`, 4.4 µM; under `O=[N+]([O-])c1cccnc1N/N=C/c1ccccc1O`, 5.45 µM. In the case of `CC(C)(C)CN1CCC(Oc2cccc(C(=O)NCCCOc3cccnc3)c2)CC1`, the AC50 is 2.13 µM. With `O=C(N/N=C/c1cc(Cl)ccc1O)C(=O)Nc1ccccc1OC(F)(F)C(F)F`, the concentration at half-maximal activity (AC50) was 8.81 µM.

On to `Cc1ccccc1Oc1cc(-n2ncc(Cl)c(Cl)c2=O)ncn1`, for which the half-maximal activity concentration (AC50) is 3.98 µM. Turning to `N/C(=N\NC(=O)c1sccc1OCc1ccc(Cl)cc1Cl)c1ccccn1`, the half-maximal activity concentration (AC50) was 11.8 µM. For the compound `Cc1cccc(CNc2ncnc3ccc(-c4ccc5c(c4)OCCO5)cc23)c1`, the concentration at half-maximal activity (AC50) is 7.27 µM. Then `CC1CCC(C(C)C)C(OC(=O)Cn2c(-c3ccccc3)[n+](C)c3ccccc32)C1` (centres undefined), with 2.76 µM and 3.37 µM; and `COc1cc(OC)nc(-n2ncc(Br)c(Br)c2=O)n1`, with 6.66 µM. On to `Cc1[nH]c2ccccc2c1CN1CCC(Cc2ccccc2)CC1`, for which the AC50 is 3.99 µM. For `Nc1nc(F)nc2c1ncn2[C@@H]1O[C@H](CO)[C@@H](O)[C@H]1O`, the AC50 was 0.699 µM. For `N#Cc1ccc(-c2ccc(Cl)cc2)nc1SCC(=O)c1cccc(Cl)c1`, the concentration at half-maximal activity (AC50) is 6 µM. On to `CCOc1ccc(S(=O)(=O)N(C(=O)c2ccco2)c2cc3sc(=O)oc3c3ccccc23)cc1`, for which the AC50 was 12.7 µM. With `O=C(Nc1nc(-c2ccccn2)cs1)c1ccccc1-n1cnnn1`, the concentration at half-maximal activity (AC50) was 5.32 µM. In the case of `COc1ccc(-c2csc(NC(=O)C3CCN(c4ncnc5sc(C)c(C)c45)CC3)n2)cc1OC`, the AC50 is 4.88 µM. Turning to `CCN(CC)c1ccc(/C=N/NC(=O)c2cccc(S(=O)(=O)Nc3ccccc3OC)c2)c(O)c1`, the half-maximal activity concentration (AC50) is 1.62 µM. Under `CCCCC1CCC(C(=O)N(CC(C)C)c2c(N)n(Cc3ccccc3)c(=O)[nH]c2=O)CC1` (centres undefined) stands 6.87 µM; under `N=c1c2c(n(Cc3ccc(Br)cc3)c3c1CCC3)CCCC2`, 3.04 µM; under `COc1ccc(O)c(C(=O)c2cnc3nc4ccccc4n3c2)c1`, 6.33 µM. For `CCN(CC)c1ccc2nc3ccccc3[n+](CC)c2c1`, the concentration at half-maximal activity (AC50) was 3.19 µM. For the compound `CC(=O)Nc1ccccc1OCC(=O)c1cc(C)n(Cc2cccs2)c1C`, the AC50 is 1.01 µM. Take `COc1cccc(CN(C)C(=O)c2cc(COc3ccc4ncccc4c3)on2)c1`: the AC50 was 6.86 µM.

Take `Cc1cccc(N2C(=S)N=C(Nc3c(C)cccc3C)C23CCOC(C)(C)C3)c1` (centres undefined): the AC50 was 3.79 µM. For `CCCC(=O)NC(c1ccc(N(C)C)cc1)c1ccc2cccnc2c1O` (centres undefined), the half-maximal activity concentration (AC50) was 2.08 µM.

Regarding `COc1ccc(C2/C=C\CN(C(=O)Nc3ccc(C(F)(F)F)cc3)CC(=O)N2Cc2ccc(F)cc2)cc1` (centres undefined), the half-maximal activity concentration (AC50) was 7.66 µM. `CC(C)(C)c1cc(C=C(C#N)C#N)cc(C(C)(C)C)c1O`: the AC50 was 0.984 µM. Turning to `COc1ccc(CN(C)c2ccc(S(=O)(=O)N3CCN(C)CC3)cc2[N+](=O)[O-])cc1OC`, the AC50 is 2.83 µM. Under `C/C(=N\N1C(=O)c2ccccc2NC1c1ccccc1)c1ccccc1O` (centres undefined) stands 19.1 µM. With `Nc1nc2ccccc2n1/N=C/c1ccc([N+](=O)[O-])s1`, the AC50 is 7.19 µM.

As to `Cc1cc(C)c2nc(NNC(=O)c3ccc(S(=O)(=O)N4CCc5ccccc5C4)cc3)sc2c1`, the AC50 was 3.39 µM.

On to `CC[C@@H](C(=O)[C@@H](C)[C@@H](O)[C@H](C)CCc1ccc(C)c(O)c1C(=O)O)[C@H]1O[C@](CC)([C@H]2CC[C@](O)(CC)[C@H](C)O2)C[C@@H]1C`, for which the AC50 is 2.49 µM. Under `C=C(C=O)C[C@@H]1C[C@H](O)C2OC3C[C@]4(C)OC5/C=C\CC6OC7C(CC=CCC6OC5CCCC4OC3CC2O1)OC1CC2OC3CC(=O)OC3C[C@@H](C)C[C@@]2(C)OC1C[C@@H]7C` (some centres undefined) stands 3.79 µM; under `c1ccc(-c2nc(NCc3ccco3)c3ccccc3n2)nc1`, 8.46 µM; under `COc1ccc(/C=C/C(=O)c2ccc([N+](=O)[O-])o2)cc1`, 12.5 µM.

Turning to `COc1cccc(/C=N/Nc2ccnc(=O)[nH]2)c1O`, the AC50 is 22.7 µM. `Cc1c(C(=O)Nc2nc(-c3ccccn3)cs2)oc2ccccc12`: the concentration at half-maximal activity (AC50) is 17.4 µM. Under `CC1=NNC(=O)/C1=C\c1cn(-c2ccccc2)nc1-c1cccs1` stands 7.54 µM.

Turning to `Cc1nc2ccccc2n1Cc1ccc(Br)cc1`, the concentration at half-maximal activity (AC50) is 5.63 µM.

As to `Cn1ncnc2c(=O)n(C)c(=O)nc1-2`, the AC50 is 1.48 µM.

As for `Cc1ccc(-c2sc(-c3ccccc3)nc2CC(=O)Nc2ccccc2F)cc1`, the AC50 is 2.06 µM.

As to `O=C(CSc1nnc(Cn2nnc3ccccc32)o1)N(Cc1ccc(F)cc1)c1ccccc1`, the half-maximal activity concentration (AC50) was 7.94 µM. As to `C/C(=N\NC(=O)c1ccc(C)cc1)c1c(C)[nH]n(-c2ccccc2)c1=O`, the AC50 was 15.3 µM. Regarding `COc1ccc(/C(C)=N/Nc2nc(C)cc(-c3ccccc3)n2)cc1`, the AC50 is 9.59 µM. In the case of `CN1/C(=C\C(=O)C[n+]2cccc(Br)c2)C(C)(C)c2ccccc21`, the half-maximal activity concentration (AC50) is 5.88 µM. Regarding `CCC(CNc1cc(OC)cc2cccnc12)NC1CCCCC1` (centres undefined), the AC50 was > 26 µM (inactive). In the case of `Cc1cc(/C=N/n2cnnc2)c(C)n1-c1ccc(OCc2ccccc2F)cc1`, the half-maximal activity concentration (AC50) was 4.05 µM. With `Cn1c(=O)[nH]c(=O)c2c1nc(N1CCN(C(c3ccccc3)c3ccccc3)CC1)n2CCO`, the AC50 is 10.8 µM. On to `CNC[C@@H](CC1CCCCC1)NC[C@H](CC(C)C)NCCc1cccc(C(F)(F)F)c1`, for which the AC50 is 4.4 µM. On to `CCOc1cc(/C=N/NC(=O)c2cc(-c3cccc(OC)c3)nc3ccccc23)ccc1O`, for which the AC50 is 6.59 µM. For `Cc1cccc(NC(=O)c2nc(S(=O)(=O)Cc3ccccc3)ncc2Cl)c1`, the AC50 was 15.8 µM. Then `Cc1cc(N2CCC(C)CC2)nc(NCc2ccccc2)n1`, with 12.3 µM; and `CC(=O)Nc1ccc(NC2=C/C(=N/S(=O)(=O)c3cccs3)c3ccccc3C2=O)cc1`, with 7.66 µM. As for `CCCCCCCCCCCCCCCC[N+](C)(C)CC`, the concentration at half-maximal activity (AC50) was 6.57 µM. As to `O=[N+]([O-])c1cc(CN2CCN(c3ccccc3)CC2)c(O)c2ncccc12`, the AC50 is 3.1 µM. Consider `O=C(NCc1cccnc1)/C(=C\c1ccc(-c2cccc(Cl)c2)o1)S(=O)(=O)c1ccccc1`, for which the half-maximal activity concentration (AC50) is 6.78 µM. For `CCCCCc1cc(=O)oc2c(C(CCN3CCCC(C)C3)c3cc(OC)c(OC)c(OC)c3)c(OC)cc(OC)c12` (centres undefined), the AC50 is 14 µM.

In the case of `Cc1nn(Cc2c(Cl)cccc2Cl)c(C)c1NC(=O)c1cn(-c2ccccc2)nc1-c1ccccc1`, the concentration at half-maximal activity (AC50) was 4.24 µM.

In the case of `Cc1nc(C)c(-c2csc(NCCc3ccccc3)n2)s1`, the half-maximal activity concentration (AC50) is 24.1 µM. Turning to `CCn1c(-c2ccc(C)cc2)nn(CC(=O)NCCc2ccccc2)c1=S`, the concentration at half-maximal activity (AC50) was 7.22 µM. For the compound `Nc1nonc1-n1nnc(C(=O)N/N=C/c2cc(Br)ccc2O)c1CSC1=NCCS1`, the AC50 is 3.58 µM. As for `Cc1ccc(-c2c[n+]3c(n2-c2ccccc2)SCC3)cc1`, the concentration at half-maximal activity (AC50) is 2.63 µM. Under `O=C(CC(O)(C(F)(F)F)C(F)(F)F)Nc1ccc(Cl)c(Cl)c1` stands 2.73 µM; under `Cc1cccc2cc(-c3ccccc3)c(-c3ccccc3)c[n+]12`, 4.21 µM; under `O=C(Nc1ccc(Cc2ccncc2)cc1)c1ccc([N+](=O)[O-])o1`, 10.1 µM.

As for `Cc1sc2ncnc(NCC(O)c3ccc([N+](=O)[O-])cc3)c2c1C` (centres undefined), the half-maximal activity concentration (AC50) was 5.1 µM. Then `Cc1cc(C2CCCCC2)n(O)c(=O)c1`, with 2.69 µM. Under `O=C(N/N=C/c1cccnc1)c1ccc(NC(=O)C(c2ccccc2)c2ccccc2)cc1` stands 0.848 µM; under `COc1ccc(C(=O)N/N=C(\C)c2ccccn2)cc1OC`, 2.54 µM. As for `O=C(/C=C/NNC(=O)c1ccccc1)c1ccc([N+](=O)[O-])cc1`, the half-maximal activity concentration (AC50) is 5.76 µM. Regarding `CCCCC(=O)NC(c1ccc(Cl)cc1Cl)c1ccc2cccnc2c1O` (centres undefined), the AC50 is 2.22 µM.

For `O=c1c2ccccc2nc(COc2ccccc2)n1/N=C/c1ccc(O)cc1O`, the half-maximal activity concentration (AC50) was 15.9 µM.

Regarding `CC(=O)NC(c1cc(Cl)c2cccnc2c1O)C1CC1` (centres undefined), the concentration at half-maximal activity (AC50) is 7.49 µM. Then `Cc1ccc([N+](=O)[O-])c(OCCN2CCCCCC2)c1`, with 7.14 µM; and `O=[N+]([O-])c1ccc(O)c(/C=N/Nc2nc3ccccc3[nH]2)c1`, with 2.01 µM; and `CCN1/C(=C/c2ccc3cc(C)ccc3[n+]2CC)Sc2ccc3sccc3c21`, with 0.316 µM.

As to `Cc1ccc(NC(=O)c2c(C(F)(F)F)nn(C)c2SCc2cccc(C(F)(F)F)c2)cc1C`, the AC50 is 11.8 µM. On to `CN1/C(=C\C(=O)COC(=O)c2ccc(O)c(O)c2)C(C)(C)c2ccccc21`, for which the AC50 is 10.1 µM.
